A short description of the assay: Positive allosteric modulation of human TIR2/TIR3 expressed in PEAKrapid cells assessed as potentiation of sucrose-induced intracellular calcium influx by measuring sucrose EC50 at 30 uM measured for 120 secs by fluorescence based assay.

In BindingDB's records for doi:10.1016/j.bmcl.2020.127000 (Ajinomoto, 2020) one finds EC50 data, which are given here for 39 compounds.

Take `CC[C@H](C)[C@H](NC(=O)[C@@H](NC(=O)OC(C)(C)C)C1CCCCC1)C(=O)NC(C)(C)CC(=O)Nc1cncc(C(=O)O)c1N`: the EC50 – broadly, the concentration giving half of the maximal effect – came out at 3.3 mM.

In the case of `CC(C)(CC(=O)Nc1cncc(C(=O)O)c1N)NC(=O)[C@@H](NC(=O)[C@@H](N)C1CCCCC1)C1CCCCC1`, the EC50 was found to be 2.5 mM.

Regarding `CCCCCCCC(=O)NC(C)(C)CC(=O)Nc1cncc(C(=O)O)c1N`, the EC50 is 10.2 mM.

As to `CC(C)(CC(=O)Nc1cncc(C(=O)O)c1N)NC(=O)c1cccc(N)c1`, the EC50 was 10.7 mM.

`CC(C)(CC(=O)Nc1cncc(C(=O)O)c1N)NC(=O)C1CCCCC1`: the EC50 was 6.1 mM.

As to `CC(C)(CC(=O)Nc1cncc(C(=O)O)c1N)NC(=O)c1cccc2c1CCCC2`, the EC50 is 8.9 mM.

Turning to `CC(C)C[C@H](N)C(=O)NC(C)(C)CC(=O)Nc1cncc(C(=O)O)c1N`, the EC50 stood at 5.7 mM.

On to `CCCCCCC(=O)NC(C)(C)CC(=O)Nc1cncc(C(=O)O)c1N`, for which the EC50 stood at 7.8 mM.

As for `CC(C)(CC(=O)Nc1cncc(C(=O)O)c1N)NC(=O)[C@@H](N)C1CCCCC1`, the EC50 was determined as 2.6 mM.

For the compound `CCCCCC(=O)NC(C)(C)CC(=O)Nc1cncc(C(=O)O)c1N`, the EC50 was determined as 6.6 mM.

With `CC(C)(CC(=O)Nc1cncc(C(=O)O)c1N)NC(=O)C1CCNC1` (centres undefined), the EC50 is 8 mM.

For the compound `CC(C)[C@H](N)C(=O)NC(C)(C)CC(=O)Nc1cncc(C(=O)O)c1N`, the EC50 worked out at 9.3 mM.

As for `CC(C)(CC(=O)Nc1cncc(C(=O)O)c1N)NC(=O)C[C@@H]1CCNC1`, the EC50 was 7.4 mM.

Turning to `CC(C)(CC(=O)Nc1cncc(C(=O)O)c1N)NC(=O)C1(N)CCCCC1`, the EC50 was determined as 7.5 mM.

On to `CC(C)CC(=O)NC(C)(C)CC(=O)Nc1cncc(C(=O)O)c1N`, for which the EC50 worked out at 7.3 mM.

For `CC(C)(CC(=O)Nc1cncc(C(=O)O)c1N)NC(=O)CCC1CCCCC1`, the EC50 is 10.9 mM.

For the compound `CC(C)(CC(=O)Nc1cncc(C(=O)O)c1N)NC(=O)[C@@H](N)c1ccccc1`, the EC50 was 9.5 mM.

As to `CC(C)(CC(=O)Nc1cncc(C(=O)O)c1N)NC(=O)C(C)(C)C`, the EC50 was found to be 9.3 mM.

Consider `CC(C)C(=O)NC(C)(C)CC(=O)Nc1cncc(C(=O)O)c1N`, for which the EC50 was found to be 7.9 mM.

With `CC(C)(CC(=O)Nc1cncc(C(=O)O)c1N)NC(=O)C1CCNCC1`, the EC50 was found to be 14.4 mM.

In the case of `CC(C)(CC(=O)Nc1cncc(C(=O)O)c1N)NC(=O)C1(c2ccccc2)CC1`, the 50% effective concentration (EC50) amounted to 8.4 mM.

`CC(C)(CC(=O)Nc1cncc(C(=O)O)c1N)NC(=O)[C@H]1CC[C@@H](N)CC1`: the EC50 was found to be 7.3 mM.

Consider `CC(C)(CC(=O)Nc1cncc(C(=O)O)c1N)NC(=O)CC1CCCC1`, for which the EC50 was found to be 5.1 mM.

In the case of `CC(C)(CC(=O)Nc1cncc(C(=O)O)c1N)NC(=O)[C@H](N)C1CCCCC1`, the EC50 came out at 7.7 mM.

`CC(C)(CC(=O)Nc1cncc(C(=O)O)c1N)NC(=O)c1ccccc1`: the EC50 was found to be 11.1 mM.

Regarding `CC[C@H](C)[C@H](NC(=O)[C@@H](N)C1CCCCC1)C(=O)NC(C)(C)CC(=O)Nc1cncc(C(=O)O)c1N`, the EC50 is 5.6 mM.

Regarding `CC(C)(CC(=O)Nc1cncc(C(=O)O)c1N)NC(=O)CC1CCCCC1`, the EC50 turned out to be 5.4 mM.

Consider `CCCCCCCC/C=C\CCCCCCCC(=O)NC(C)(C)CC(=O)Nc1cncc(C(=O)O)c1N`, for which the half-maximal effective concentration (EC50) is 9.9 mM.

As for `CC(C)(CC(=O)Nc1cncc(C(=O)O)c1N)NC(=O)CC1(CN)CCCCC1`, the EC50 is 4.3 mM.

Take `CC(C)(CC(=O)Nc1cncc(C(=O)O)c1N)NC(=O)[C@@H]1CCC[C@H](N)C1`: the EC50 turned out to be 9.8 mM.

Regarding `CC(C)(CC(=O)Nc1cncc(C(=O)O)c1N)NC(=O)[C@H]1CC[C@H](N)CC1`, the EC50 is 7.8 mM.

As for `CC(C)(C)CC(=O)NC(C)(C)CC(=O)Nc1cncc(C(=O)O)c1N`, the EC50 is 8.1 mM.

With `CC(C)C[C@H](NC(=O)[C@@H](N)C1CCCCC1)C(=O)NC(C)(C)CC(=O)Nc1cncc(C(=O)O)c1N`, the EC50 was found to be 5.6 mM.

Take `CC(C)(CC(=O)Nc1cncc(C(=O)O)c1N)NC(=O)[C@@H](N)CC1CCCCC1`: the EC50 is 7.3 mM.

On to `CC(C)C[C@H](NC(=O)[C@@H](NC(=O)OC(C)(C)C)C1CCCCC1)C(=O)NC(C)(C)CC(=O)Nc1cncc(C(=O)O)c1N`, for which the EC50 came to 3.7 mM.

Take `CC(C)(CC(=O)Nc1cncc(C(=O)O)c1N)NC(=O)CC[C@@H](N)Cc1ccccc1`: the EC50 was determined as 8.8 mM.

With `CCCCCCCCCCCC(=O)NC(C)(C)CC(=O)Nc1cncc(C(=O)O)c1N`, the EC50 stood at 11.8 mM.

For the compound `CC(C)(CC(=O)Nc1cncc(C(=O)O)c1N)NC(=O)c1ccc(N)cc1`, the EC50 stood at 8.9 mM.

`CC(C)(CC(=O)Nc1cncc(C(=O)O)c1N)NC(=O)C[C@H]1CCNC1`: the EC50 amounted to 7.6 mM.
